Measurements: US9695180B2 (Incyte Corporation, priority 2014, dated 2017)

These compounds were tested against LSD-1 enzyme (Homo sapiens (Human), UniProt O60341) (assay: LANCE LSD1/KDM1A demethylase assay (LSD1 histone demethylase biochemical assay)). Details: not given.
Experimental: Example A: LSD1 Histone Demethylase Biochemical Assay
LANCE LSD1/KDM1A demethylase assay—10 μL of 1 nM LSD-1 enzyme (ENZO BML-SE544-0050) in the assay buffer (50 mM Tris, pH 7.5, 0.01% Tween-20, 25 mM NaCl, 5 mM DTT) were preincubated for 1 hour at 25° C. with 0.8 μL compound/DMSO dotted in black 384 well polystyrene plates. […] Reactions were stopped by addition of 10 μL 1× LANCE Detection Buffer (PerkinElmer CR97-100) supplemented with 1.5 nM Eu-anti-unmodified H3K4 Antibody (PerkinElmer TRF0404), and 225 nM LANCE Ultra Streptavidin (PerkinElmer TRF102) along with 0.9 mM Tranylcypromine-HCl (Millipore 616431). After stopping the reactions plates were incubated for 30 minutes and read on a PHERAstar FS plate reader (BMG Labtech).

Row | SMILES | IC50 [nM]
1 | Cc1ccc(-c2c(-c3ccc(C#N)cc3)nc(CO[C@@H]3CCNC3)c3nccn23)cc1 [Example 3, 4-(5-(4-methylphenyl)-8-{[(3R)-pyrrolidin-3-yloxy]methyl}imidazo[1,2-a]pyrazin-6-yl)benzonitrile] | 50 to 500
2 | Cc1ccc(-c2c(-c3ccc(C#N)cc3)nc(CCN3CC[C@@H](N(C)C)C3)c3nccn23)cc1 [Example 6, 4-[8-{2-[(3R)-3-(dimethylamino)pyrrolidin-1-yl]ethyl}-5-(4-methylphenyl)imidazo[1,2-a]pyrazin-6-yl]benzonitrile] | 500 to 1000
3 | Cc1ccc(-c2c(-c3ccc(C#N)cc3)nc(OCCCN(C)C)c3nccn23)cc1 [Example 8, 4-[8-[3-(dimethylamino)propoxy]-5-(4-methylphenyl)imidazo[1,2-a]pyrazin-6-yl]benzonitrile] | 50 to 500
4 | Cc1ccc(-c2c(-c3ccc(C#N)cc3)nc(N(C)CCCN(C)C)c3nccn23)cc1 [Example 15, 4-[8-[[3-(dimethylamino)propyl](methyl)amino]-5-(4-methylphenyl)imidazo[1,2-a]pyrazin-6-yl]benzonitrile] | 50 to 500
5 | Cc1ccc(-c2c(-c3ccc(C#N)cc3)nc(NCCC3CCCN3C)c3nccn23)cc1 (stereo not shown) [Example 16, 4-(5-(4-methylphenyl)-8-{[2-(1-methylpyrrolidin-2-yl)ethyl]amino}imidazo[1,2-a]pyrazin-6-yl)benzonitrile] | 50 to 500
6 | Cc1ccc(-c2c(-c3ccc(C#N)cc3)nc(NC3CCN(C)CC3)c3nccn23)cc1 [Example 17, 4-{5-(4-methylphenyl)-8-[(1-methylpiperidin-4-yl)amino]imidazo[1,2-a]pyrazin-6-yl}benzonitrile] | 50 to 500
7 | Cc1ccc(-c2c(-c3ccc(C#N)cc3)nc(N(C)C(=O)N3CC[C@@H](N(C)C)C3)c3nccn23)cc1 [Example 21, (3R)—N-[6-(4-cyanophenyl)-5-(4-methylphenyl)imidazo[1,2-a]pyrazin-8-yl]-3-(dimethylamino)-N-methylpyrrolidine-1-carboxamide] | 50 to 500
8 | Cc1ccc(-c2c(-c3ccc(C#N)cc3)nc(N(C)C(=O)N3CC[C@H](N(C)C)C3)c3nccn23)cc1 [Example 22, (3S)—N-[6-(4-cyanophenyl)-5-(4-methylphenyl)imidazo[1,2-a]pyrazin-8-yl]-3-(dimethylamino)-N-methylpyrrolidine-1-carboxamide] | 500 to 1000
9 | Cc1ccc(-c2c(-c3ccc(C#N)cc3)nc(NCCc3csc(N)n3)c3nccn23)cc1 [Example 23, 4-[8-{[2-(2-amino-1,3-thiazol-4-yl)ethyl]amino}-5-(4-methylphenyl)imidazo[1,2-a]pyrazin-6-yl]benzonitrile] | 50 to 500
10 | Cc1ccc(-c2c(-c3ccc(C#N)cc3)nc(C(=O)NCC3CNC3)c3nccn23)cc1 [Example 24, N-(azetidin-3-ylmethyl)-6-(4-cyanophenyl)-5-(4-methylphenyl)imidazo[1,2-a]pyrazine-8-carboxamide] | 50 to 500
11 | Cc1ccc(-c2c(-c3ccc(C#N)cc3)nc(C(=O)NC3CN(C)C3)c3nccn23)cc1 [Example 25, 6-(4-cyanophenyl)-N-(1-methylazetidin-3-yl)-5-(4-methylphenyl)imidazo[1,2-a]pyrazine-8-carboxamide] | 50 to 500
12 | N#Cc1ccc(-c2nc(OC[C@@H]3CCNC3)c3nccn3c2-c2ccccc2)cc1 [Example 26, 4-{(5-phenyl)-8-[(3R)-pyrrolidin-3-ylmethoxy]imidazo[1,2-a]pyrazin-6-yl}benzonitrile] | 50 to 500
13 | N#Cc1ccc(-c2nc(OC[C@@H]3CCNC3)c3nccn3c2-c2ccc(Cl)cc2)cc1 [Example 27, 4-{5-(4-chlorophenyl)-8-[(3R)-pyrrolidin-3-ylmethoxy]imidazo[1,2-a]pyrazin-6-yl}benzonitrile] | 50 to 500
14 | N#Cc1ccc(-c2nc(OC[C@@H]3CCNC3)c3nccn3c2-c2ccc(C(F)(F)F)cc2)cc1 [Example 28, 4-{8-[(3R)-pyrrolidin-3-ylmethoxy]-5-[4-(trifluoromethyl)phenyl]imidazo[1,2-a]pyrazin-6-yl}benzonitrile] | 50 to 500
15 | CN(C)c1ncc(-c2c(-c3ccc(C#N)cc3)nc(OC[C@@H]3CCNC3)c3nccn23)cn1 [Example 31, 4-{5-[2-(dimethylamino)pyrimidin-5-yl]-8-[(3R)-pyrrolidin-3-ylmethoxy]imidazo[1,2-a]pyrazin-6-yl}benzonitrile] | 50 to 500
16 | CN1CC[C@@H](COc2nc(-c3ccc(C#N)cc3)c(-c3ccc(N(C)C)nc3)n3ccnc23)C1 [Example 32, 4-(5-[6-(dimethylamino)pyridin-3-yl]-8-{[(3R)-1-methylpyrrolidin-3-yl]methoxy}imidazo[1,2-a]pyrazin-6-yl)benzonitrile] | 50 to 500
17 | Cc1ccc(-c2c(-c3ccc(C#N)cc3)nc(OC[C@@H]3CCNC3)c3nc(C(F)(F)F)cn23)cc1 [Example 34, 4-[5-(4-methylphenyl)-8-[(3R)-pyrrolidin-3-ylmethoxy]-2-(trifluoromethyl)imidazo[1,2-a]pyrazin-6-yl]benzonitrile] | 50 to 500
18 | Cc1ccc(-c2cn3c(-c4ccc(C)cc4)c(-c4ccc(C#N)cc4)nc(OC[C@@H]4CCNC4)c3n2)cc1 [Example 35, 4-{2,5-bis(4-methylphenyl)-8-[(3R)-pyrrolidin-3-ylmethoxy]imidazo[1,2-a]pyrazin-6-yl}benzonitrile] | 50 to 500
19 | CN1CCC[C@@H](COc2nc(-c3ccc(C#N)cc3)c(-c3ccc(N4CCCC4=O)nc3)n3ccnc23)C1 [Example 48, 4-{8-{[(3R)-1-methylpiperidin-3-yl]methoxy}-5-[6-(2-oxopyrrolidin-1-yl)pyridin-3-yl]imidazo[1,2-a]pyrazin-6-yl}benzonitrile] | 50 to 500
20 | CN1CCC[C@@H](COc2nc(-c3ccc(C#N)cc3)c(-c3ccc4c(c3)OCC(=O)N4C)n3ccnc23)C1 [Example 49, 4-(5-(4-methyl-3-oxo-3,4-dihydro-2H-1,4-benzoxazin-7-yl)-8-{[(3R)-1-methylpiperidin-3-yl]methoxy}imidazo[1,2-a]pyrazin-6-yl)benzonitrile] | 50 to 500
21 | CN1CCC[C@@H](COc2nc(-c3ccc(C#N)cc3)c(-c3ccc4c(c3)OCCO4)n3ccnc23)C1 [Example 50, 4-(5-(2,3-dihydro-1,4-benzodioxin-6-yl)-8-{[(3R)-1-methylpiperidin-3-yl]methoxy}imidazo[1,2-a]pyrazin-6-yl)benzonitrile] | 50 to 500
22 | CN1CCC[C@@H](COc2nc(-c3ccc(C#N)cc3)c(-c3ccc(N(C)C)nc3)n3ccnc23)C1 [Example 51, 4-(5-[6-(dimethylamino)pyridin-3-yl]-8-{[(3R)-1-methylpiperidin-3-yl]methoxy}imidazo[1,2-a]pyrazin-6-yl)benzonitrile] | 50 to 500
23 | CN1CCC[C@@H](COc2nc(-c3ccc(C#N)cc3)c(-c3cnc4c(cnn4C)c3)n3ccnc23)C1 [Example 54, 4-[8-{[(3R)-1-methylpiperidin-3-yl]methoxy}-5-(1-methyl-1H-pyrazolo[3,4-b]pyridin-5-yl)imidazo[1,2-a]pyrazin-6-yl]benzonitrile] | 50 to 500

Same assay, conditions: 1 nM LSD-1 enzyme, 1 hour preincubation at 25° C., Biotin-labeled Histone H3 peptide substrate; read-out: IC50

Row | SMILES | IC50 [nM]
24 | CN1CCC[C@@H](COc2nc(-c3ccc(C#N)cc3)c(-c3ccc4c(c3)CC(O)C4)n3ccnc23)C1 (single isomer, unassigned) [78 (peak 1)] | < 50
25 | CN1CCC[C@@H](COc2nc(-c3ccc(C#N)cc3)c(-c3ccc4c(c3)CC(O)C4)n3ccnc23)C1 (single isomer, unassigned) [78 (peak 2)] | < 50
